Values quoted from earlier work, collected in publication PMC3368153 (Nature chemical biology, 2012).

Columns and labels:
γ2 F77Y GABAAR = details: versus wild type
α1 H101C GABAAR = details: versus wild type
[1] = system: α1 His101 replaced by glutamine, GABAAR; details: versus wild type
γ2 F77I GABAAR = details: versus wild type
α1 Y209A GABAAR = details: versus wild type

## dichlorodiazepam
γ2 F77Y GABAAR
  affinity loss (factor), γ2 F77Y: 700

## CN1C(=O)CN=C(c2ccccc2F)c2cc([N+](=O)[O-])ccc21 [flunitrazepam]
α1 H101R mutation GABAAR
  affinity in α1 H101R mutant: drastically reduced affinity
α1 H101C GABAAR
  loss of affinity (factor), cysteine at α1 His101: 200
[1]
  loss of affinity (factor), glutamine at α1 His101: 15

## Ro15-8670
γ2 F77I GABAAR
  loss of affinity (factor), γ2 F77I: 4-5

## CN1C(=O)CN=C(c2ccccc2)c2cc(Cl)ccc21 [diazepam]
α1 Y209A GABAAR
  decrease in binding affinity (factor), α1 Y209A: 40
γ2 F77Y GABAAR
  affinity loss (factor), γ2 F77Y: 250
γ2 F77I GABAAR
  loss of affinity (factor), γ2 F77I: 4-5
γ2 F77L GABAAR
  tolerance of point mutation γ2 F77L (affinity): tolerated well

## monochlorodiazepam
γ2 F77Y GABAAR
  affinity loss (factor), γ2 F77Y: 530

## CCOC(=O)c1ncn2c1CN(C)C(=O)c1cc(F)ccc1-2 [flumazenil]
α1 H101R mutation GABAAR
  affinity in α1 H101R mutant: tolerate this mutation
α1 Y209A GABAAR
  decrease in binding affinity (factor), α1 Y209A: 41
γ2 F77I GABAAR
  loss of affinity (factor), γ2 F77I: 2,000
γ2 F77L GABAAR
  tolerance of point mutation γ2 F77L (affinity): tolerated well
